The subject of experiment [1] is Aspergillus niger. Description: Antifungal activity against Aspergillus niger MTCC-343 after 3 to 4 days by serial plate dilution method. As to conditions: for MIC: Aspergillus niger, MTCC-343. The class given is functional.
Experiment [2] deals with Candida albicans. Description: Antifungal activity against Candida albicans MTCC-183 after 3 to 4 days by serial plate dilution method. The class given is functional. The following applies: for MIC: Candida albicans, MTCC-183.
Another experiment relates to Pseudomonas aeruginosa. The experiment is described as follows: Antibacterial activity against Pseudomonas aeruginosa MTCC-647 after 24 hr by disk-diffusion method. Format: functional.
A further experiment deals with Escherichia coli. The experiment is described as follows: Antibacterial activity against Escherichia coli MTCC-521 after 24 hr by disk diffusion method. The class given is functional. (In agar diffusion tests the substance spreads into inoculated agar from a disc or well.)
For another experiment, the system named is Staphylococcus aureus. The experiment is described as follows: Antibacterial activity against Staphylococcus aureus MTCC-96 after 24 hr by disk-diffusion method. The class given is functional.
For experiment [3], the system named is Aspergillus niger. The experiment is described as follows: Antifungal activity against Aspergillus niger MTCC-343 at >100 ug/ml after 3 to 4 days by serial plate dilution method. The class given is functional, organism-based.
Experiment [4] concerns Candida albicans. Description: Antifungal activity against Candida albicans MTCC-183 at >100 ug/ml after 3 to 4 days by serial plate dilution method. Format: functional, organism-based.
Where [5] appears, read: Pseudomonas aeruginosa, MTCC-647, 24 h.
The mark [6] stands for this setting: Escherichia coli, MTCC-521, 24 h.
Where [7] appears, read: Staphylococcus aureus, MTCC-96, 24 h.

Values after ≈ are worked out from the molar mass of the structure shown. Active and inactive are the calls of the source. The calls are words filed in the database; no cut-off is given here.

The MIC is the lowest concentration that inhibits growth of the organism. A lower MIC goes with a more susceptible organism. For the molecule `O=C1C(Cl)C2(C(=O)Nc3c(Br)cc(Br)cc32)N1c1ccccc1` (stereo unspecified), the entries for the “inhibition zone (IZ)” value with Aspergillus niger [1] and with Candida albicans [2] were 14 mm and 17 mm, respectively. Further, the minimal inhibitory concentration (MIC) against Aspergillus niger [1] amounted to 25 µg/mL (≈ 54.8 µM); against Candida albicans [2] it was 12.5 µg/mL (≈ 27.4 µM); with Pseudomonas aeruginosa (setting [5]), 12.5 µg/mL (≈ 27.4 µM); in the experiment with Escherichia coli (setting [6]), 12.5 µg/mL (≈ 27.4 µM); against Staphylococcus aureus (setting [7]), 6.25 µg/mL (≈ 13.7 µM). Besides, the “diameter of the inhibition zone (DIZ)” value in the experiment on Pseudomonas aeruginosa worked out at 26 mm; in the experiment on Escherichia coli, 21 mm; in the experiment on Staphylococcus aureus, 24 mm.

Turning to `Cc1ccc(N2C(=O)C(Cl)C23C(=O)Nc2c(Br)cc(Br)cc23)cc1` (stereo unspecified), the outcome in the experiment on Aspergillus niger [3] was inactive. Besides, the “inhibition zone (IZ)” value in the experiment with Candida albicans [2] was 16 mm. For the same molecule, the MIC in the experiment on Candida albicans [2] was 12.5 µg/mL (≈ 26.6 µM); in the experiment with Pseudomonas aeruginosa (setting [5]), 6.25 µg/mL (≈ 13.3 µM); with Escherichia coli (setting [6]) it was 12.5 µg/mL (≈ 26.6 µM); against Staphylococcus aureus (setting [7]), 6.25 µg/mL (≈ 13.3 µM). The “diameter of the inhibition zone (DIZ)” value in the experiment on Pseudomonas aeruginosa came to 26 mm; with Escherichia coli, 22 mm; in the experiment with Staphylococcus aureus, 24 mm.

On to `CCC(C)n1ncn(-c2ccc(N3CCN(c4ccc(OCC5COC(Cn6cncn6)(c6ccc(Cl)cc6Cl)O5)cc4)CC3)cc2)c1=O` (stereo unspecified) [ITRACONAZOLE], for which, in the experiment with Aspergillus niger [1], the “inhibition zone (IZ)” value was determined as 25 mm and the minimal inhibitory concentration (MIC) was determined as 6.25 µg/mL (≈ 8.86 µM). For the same molecule, in the experiment with Candida albicans [2], the “inhibition zone (IZ)” value came to 27 mm and the minimum inhibitory concentration (MIC) is 6.25 µg/mL (≈ 8.86 µM).

As for `Cc1ccc(N2C(=O)C(Cl)C23C(=O)Nc2ccccc23)cc1` (stereo unspecified), the “inhibition zone (IZ)” value with Aspergillus niger [1] came out at 22 mm; in the experiment with Candida albicans [2], 16 mm. The MIC against Aspergillus niger [1] was found to be 6.25 µg/mL (≈ 20 µM); against Candida albicans [2], 12.5 µg/mL (≈ 40 µM); against Pseudomonas aeruginosa (setting [5]) it was 25 µg/mL (≈ 79.9 µM); against Escherichia coli (setting [6]), 25 µg/mL (≈ 79.9 µM); in the experiment on Staphylococcus aureus (setting [7]), 25 µg/mL (≈ 79.9 µM). Moreover, the “diameter of the inhibition zone (DIZ)” value is reported as 17 mm with Pseudomonas aeruginosa, 20 mm in the experiment with Escherichia coli and 19 mm in the experiment on Staphylococcus aureus.

For the molecule `O=C1C(Cl)C2(C(=O)Nc3c(Br)cc(Br)cc32)N1c1ccccc1[N+](=O)[O-]` (stereo unspecified), the “inhibition zone (IZ)” value in the experiment on Aspergillus niger [1] was found to be 14 mm; in the experiment with Candida albicans [2], 19 mm. The MIC in the experiment with Aspergillus niger [1] turned out to be 25 µg/mL (≈ 49.8 µM); against Candida albicans [2] it was 6.25 µg/mL (≈ 12.5 µM); with Pseudomonas aeruginosa (setting [5]), 6.25 µg/mL (≈ 12.5 µM); against Escherichia coli (setting [6]) it was 6.25 µg/mL (≈ 12.5 µM); against Staphylococcus aureus (setting [7]) it was 6.25 µg/mL (≈ 12.5 µM). The “diameter of the inhibition zone (DIZ)” value in the experiment on Pseudomonas aeruginosa is listed as 27 mm; with Escherichia coli, 21 mm; with Staphylococcus aureus it was 27 mm.

Take `CN[C@@H]1[C@H](O[C@H]2[C@H](O[C@H]3[C@H](O)[C@@H](O)[C@H](N=C(N)N)[C@@H](O)[C@@H]3N=C(N)N)O[C@@H](C)[C@]2(O)C=O)O[C@@H](CO)[C@H](O)[C@H]1O` [STREPTOMYCIN]: the “diameter of the inhibition zone (DIZ)” value is 31 mm in the experiment on Pseudomonas aeruginosa, 26 mm in the experiment with Escherichia coli and 31 mm with Staphylococcus aureus. In addition, the MIC against Pseudomonas aeruginosa (setting [5]), in the experiment on Escherichia coli (setting [6]) and in the experiment on Staphylococcus aureus (setting [7]) was 6.25 µg/mL (≈ 10.7 µM) each time.

With `O=C1C(Cl)C2(C(=O)Nc3ccccc32)N1c1ccccc1[N+](=O)[O-]` (stereo unspecified), the outcome in the experiment with Candida albicans [4] was inactive. Moreover, in the experiment with Aspergillus niger [1], the “inhibition zone (IZ)” value is given as 17 mm. For the same molecule, the minimum inhibitory concentration (MIC) was 12.5 µg/mL (≈ 36.4 µM) with Aspergillus niger [1], 25 µg/mL (≈ 72.7 µM) against Pseudomonas aeruginosa (setting [5]), 12.5 µg/mL (≈ 36.4 µM) in the experiment on Escherichia coli (setting [6]) and 12.5 µg/mL (≈ 36.4 µM) in the experiment on Staphylococcus aureus (setting [7]). Moreover, the “diameter of the inhibition zone (DIZ)” value in the experiment with Pseudomonas aeruginosa is recorded as 19 mm; with Escherichia coli, 21 mm; in the experiment on Staphylococcus aureus, 17 mm.

On to `O=C1C(Cl)C2(C(=O)Nc3ccccc32)N1c1ccc([N+](=O)[O-])cc1` (stereo unspecified), for which the “inhibition zone (IZ)” value in the experiment with Aspergillus niger [1] worked out at 24 mm; with Candida albicans [2], 25 mm. Also, the MIC with Aspergillus niger [1] came to 6.25 µg/mL (≈ 18.2 µM); with Candida albicans [2] it was 6.25 µg/mL (≈ 18.2 µM); against Pseudomonas aeruginosa (setting [5]) it was 25 µg/mL (≈ 72.7 µM); in the experiment with Escherichia coli (setting [6]) it was 25 µg/mL (≈ 72.7 µM); against Staphylococcus aureus (setting [7]), 25 µg/mL (≈ 72.7 µM). Also, the results for the “diameter of the inhibition zone (DIZ)” value in the experiment with Pseudomonas aeruginosa, in the experiment with Escherichia coli and in the experiment on Staphylococcus aureus were 17 mm, 20 mm and 19 mm, respectively.

With GENTAMICIN, the MIC in the experiment on Pseudomonas aeruginosa, in the experiment with Escherichia coli and in the experiment on Staphylococcus aureus was 6.25 µg/mL each time.

Consider `CC1(C)S[C@@H]2[C@H](NC(=O)[C@H](N)c3ccc(O)cc3)C(=O)N2[C@H]1C(=O)O` [AMOXICILLIN], for which the “diameter of the inhibition zone (DIZ)” value was found to be 30 mm in the experiment with Pseudomonas aeruginosa, 25 mm in the experiment on Escherichia coli and 29 mm in the experiment on Staphylococcus aureus. The MIC against Pseudomonas aeruginosa (setting [5]), against Escherichia coli (setting [6]) and against Staphylococcus aureus (setting [7]) was 6.25 µg/mL (≈ 17.1 µM) each time.

With `Cc1ccccc1N1C(=O)C(Cl)C12C(=O)Nc1ccccc12` (stereo unspecified), the “inhibition zone (IZ)” value is given as 24 mm in the experiment with Aspergillus niger [1] and 11 mm in the experiment with Candida albicans [2]. For the same molecule, the MIC against Aspergillus niger [1] worked out at 6.25 µg/mL (≈ 20 µM); with Candida albicans [2], 25 µg/mL (≈ 79.9 µM); in the experiment with Pseudomonas aeruginosa (setting [5]) it was 25 µg/mL (≈ 79.9 µM); against Escherichia coli (setting [6]), 25 µg/mL (≈ 79.9 µM); against Staphylococcus aureus (setting [7]) it was 12.5 µg/mL (≈ 40 µM). In addition, the “diameter of the inhibition zone (DIZ)” value turned out to be 17 mm in the experiment on Pseudomonas aeruginosa, 19 mm with Escherichia coli and 22 mm in the experiment with Staphylococcus aureus.

With `O=C1C(Cl)C2(C(=O)Nc3ccccc32)N1c1ccccc1` (stereo unspecified), the “inhibition zone (IZ)” value in the experiment on Aspergillus niger [1] amounted to 22 mm; with Candida albicans [2], 23 mm. Also, the MIC came out at 12.5 µg/mL (≈ 41.8 µM) against Aspergillus niger [1]; 6.25 µg/mL (≈ 20.9 µM) against Candida albicans [2]; 25 µg/mL (≈ 83.7 µM) in the experiment on Pseudomonas aeruginosa (setting [5]); 25 µg/mL (≈ 83.7 µM) in the experiment on Escherichia coli (setting [6]); 12.5 µg/mL (≈ 41.8 µM) against Staphylococcus aureus (setting [7]). The “diameter of the inhibition zone (DIZ)” value is recorded as 18 mm with Pseudomonas aeruginosa, 19 mm in the experiment on Escherichia coli and 21 mm in the experiment with Staphylococcus aureus.

As for `O=C1C(Cl)C2(C(=O)Nc3c(Br)cc(Br)cc32)N1c1ccc([N+](=O)[O-])cc1` (stereo unspecified), the “inhibition zone (IZ)” value in the experiment with Aspergillus niger [1] is on record as 23 mm; in the experiment on Candida albicans [2], 26 mm. In addition, the MIC against Aspergillus niger [1], with Candida albicans [2], with Pseudomonas aeruginosa (setting [5]), in the experiment with Escherichia coli (setting [6]) and against Staphylococcus aureus (setting [7]) was 6.25 µg/mL (≈ 12.5 µM) each time. The “diameter of the inhibition zone (DIZ)” value amounted to 28 mm in the experiment with Pseudomonas aeruginosa, 24 mm with Escherichia coli and 28 mm in the experiment with Staphylococcus aureus.

Consider `Cc1ccccc1N1C(=O)C(Cl)C12C(=O)Nc1c(Br)cc(Br)cc12` (stereo unspecified), for which the “inhibition zone (IZ)” value in the experiment on Aspergillus niger [1] was determined as 17 mm; in the experiment with Candida albicans [2] it was 19 mm. Also, the MIC in the experiment with Aspergillus niger [1] worked out at 12.5 µg/mL (≈ 26.6 µM); in the experiment on Candida albicans [2] it was 6.25 µg/mL (≈ 13.3 µM); with Pseudomonas aeruginosa (setting [5]) it was 12.5 µg/mL (≈ 26.6 µM); with Escherichia coli (setting [6]), 6.25 µg/mL (≈ 13.3 µM); against Staphylococcus aureus (setting [7]) it was 6.25 µg/mL (≈ 13.3 µM). The entries for the “diameter of the inhibition zone (DIZ)” value with Pseudomonas aeruginosa, with Escherichia coli and in the experiment on Staphylococcus aureus were 24 mm, 23 mm and 23 mm, respectively.

For `OC(Cn1cncn1)(Cn1cncn1)c1ccc(F)cc1F` [FLUCONAZOLE], in the experiment with Aspergillus niger [1], the “inhibition zone (IZ)” value is 26 mm and it took 6.25 µg/mL (≈ 20.4 µM) to inhibit growth (MIC). In addition, in the experiment with Candida albicans [2], the “inhibition zone (IZ)” value was determined as 27 mm and the MIC is 6.25 µg/mL (≈ 20.4 µM).
